Test results from patent publication US7906522B2, “2-aminoquinazoline derivatives” (Kyowa Hakko Kirin Co., Ltd, priority 2005, dated 2011).

target: T1, Activated human p38α (Homo sapiens, UniProt Q16539); test: p38MAP kinase inhibition test; type: biochemical; conditions: at a concentration of 1 μmol/L; substrate myelin basic protein, ATP 20 μmol/L, [γ-32P]ATP; read-out: enzyme inhibitory activity
T1 construct: purchased Upstate Biotechnology Inc. 14-251
Procedure, shortened: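 Radiometric kinase assay with myelin basic protein (20 μg/assay) as substrate, 20 μmol/L ATP plus [γ-32P]ATP, MOPS pH 7.2 with MgCl2 18.75 mmol/L. Reaction run 15 min at 30° C., stopped with phosphoric acid; 32P-MBP captured on phosphocellulose and counted by scintillation.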

T1 sequence (Q16539 whole entry): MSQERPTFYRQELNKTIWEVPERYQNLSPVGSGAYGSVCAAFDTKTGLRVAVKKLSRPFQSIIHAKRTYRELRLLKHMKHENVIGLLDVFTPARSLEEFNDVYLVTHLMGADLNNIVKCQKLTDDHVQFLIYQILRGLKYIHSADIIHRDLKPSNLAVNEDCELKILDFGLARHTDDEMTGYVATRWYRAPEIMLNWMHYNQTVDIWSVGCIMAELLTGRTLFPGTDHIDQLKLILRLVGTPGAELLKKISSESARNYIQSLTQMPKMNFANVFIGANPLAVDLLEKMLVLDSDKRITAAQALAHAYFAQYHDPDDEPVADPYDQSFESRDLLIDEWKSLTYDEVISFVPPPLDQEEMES

Question: `COc1cccc(C(=O)c2cc3cnc(NC(C)C)nc3cc2O)c1` [Compound 121, 7-Hydroxy-2-isopropylamino-6-(3-methoxybenzoyl)quinazoline] was tested. Which inhibition at 1 µM did it give?
Answer: The inhibition at 1 µM was at least 50%.

Question: How did the inhibition at 1 µM turn out when `COc1c(-c2ccccc2Cl)cc2cnc(NC(C)C)nc2c1C(=O)N1CCCCC1` [Compound 67, 6-(2-Chlorophenyl)-2-isopropylamino-7-methoxy-8-(piperidinocarbonyl)quinazoline] was run?
Answer: The inhibition at 1 µM was at least 50%.

Question: Which inhibition at 1 µM does the source give for `COc1cc2nc(Nc3c(F)cccc3F)ncc2cc1-c1ccccc1Cl` [Compound 16, 6-(2-Chlorophenyl)-2-(2,6-difluoroanilino)-7-methoxyquinazoline] here?
Answer: Its inhibition at 1 µM is at least 50%.

Question: Which inhibition at 1 µM does the source give for `COc1cc2nc(NCC3CCN(S(C)(=O)=O)CC3)ncc2cc1-c1ccccc1Cl` [Compound 144, 6-(2-Chlorophenyl)-7-methoxy-2-[1-(methylsulfonyl)piperidin-4-ylmethylamino]quinazoline] here?
Answer: The inhibition at 1 µM was at least 50%.

Question: For `COc1cc2nc(NC3CCN(S(C)(=O)=O)CC3)ncc2cc1-c1cccc(NC(C)=O)c1` [Compound 238, 6-(3-Acetylaminophenyl)-7-methoxy-2-[1-(methylsulfonyl)piperidin-4-ylamino]quinazoline], which inhibition at 1 µM is on record?
Answer: Its inhibition at 1 µM is at least 50%.

Question: For `CC(C)Nc1ncc2cc(-c3ccccc3Cl)c(O)c(-c3c(F)cccc3F)c2n1` [Compound 102, 6-(2-Chlorophenyl)-8-(2,6-difluorophenyl)-7-hydroxy-2-(isopropylamino)quinazoline], which inhibition at 1 µM is on record?
Answer: The inhibition at 1 µM was at least 50%.

Question: Which inhibition at 1 µM does the source give for `CC(C)Nc1ncc2cc(-c3ccccc3Cl)c(OCC(N)=O)cc2n1` [Compound 35, 7-(Carbamoylmethyloxy)-6-(2-chlorophenyl)-2-isopropylaminoquinazoline] here?
Answer: The inhibition at 1 µM was at least 50%.

Question: For `CC(C)Nc1ncc2cc(-c3ccccc3Cl)c(OCC(=O)N3CCOCC3)cc2n1` [Compound 39, 6-(2-Chlorophenyl)-2-isopropylamino-7-[(morpholinocarbonyl)methyloxy]quinazoline], which inhibition at 1 µM is on record?
Answer: The inhibition at 1 µM was at least 50%.

Question: How did the inhibition at 1 µM turn out when `CC(C)Nc1ncc2cc(-c3ccccc3Cl)c(O)c(-c3ccccc3F)c2n1` [Compound 100, 6-(2-Chlorophenyl)-8-(2-fluorophenyl)-7-hydroxy-2-(isopropylamino)quinazoline] was run?
Answer: The inhibition at 1 µM was at least 50%.

Question: Which inhibition at 1 µM does the source give for `CS(=O)(=O)N1CCC(Nc2ncc3cc(C(=O)c4ccccc4)c(O)cc3n2)CC1` [Compound 136, 6-Benzoyl-7-hydroxy-2-[1-(methylsulfonyl)piperidin-4-ylamino]quinazoline] here?
Answer: The inhibition at 1 µM was at least 50%.

Question: `CC(C)Nc1ncc2cc(-c3ccccc3Cl)c(OCCCCO)cc2n1` [Compound 25, 6-(2-Chlorophenyl)-7-(4-hydroxybutyloxy)-2-isopropylaminoquinazoline] was tested. Which inhibition at 1 µM did it give?
Answer: The inhibition at 1 µM was at least 50%.

Question: How did the inhibition at 1 µM turn out when `COc1cc2nc(NC3CCN(S(C)(=O)=O)C3)ncc2cc1-c1ccccc1Cl` (centres unmarked) [Compound 145, 6-(2-Chlorophenyl)-7-methoxy-2-[1-(methylsulfonyl)pyrrolidin-3-ylamino]quinazoline] was run?
Answer: The inhibition at 1 µM was at least 50%.

Question: With `COc1cc2nc(NC(C)C)ncc2cc1-c1ccc(F)cc1F` [Compound 3, 6-(2,4-Difluorophenyl)-2-isopropylamino-7-methoxyquinazoline] as the compound, how does the inhibition at 1 µM read?
Answer: The inhibition at 1 µM was at least 50%.

Question: With `COc1cc2nc(NC(C)C)ncc2cc1-c1cccc(OCc2ccccc2)c1` [Compound 195, 6-[3-(Benzyloxy)phenyl]-2-isopropylamino-7-methoxyquinazoline] as the compound, how does the inhibition at 1 µM read?
Answer: The inhibition at 1 µM was at least 50%.

Question: With `CC(C)Nc1ncc2cc(-c3cccc(NC(=O)C4CCC4)c3)c(O)cc2n1` [Compound 294, 6-[3-(Cyclobutylcarbonylamino)phenyl]-7-hydroxy-2-(isopropylamino)quinazoline] as the compound, how does the inhibition at 1 µM read?
Answer: Its inhibition at 1 µM is at least 50%.

Question: `COc1cc2nc(NC(C)C)ncc2cc1-c1cccc(OC)c1F` [Compound 207, 6-(2-Fluoro-3-methoxyphenyl)-2-isopropylamino-7-methoxyquinazoline] was tested. Which inhibition at 1 µM did it give?
Answer: Its inhibition at 1 µM is at least 50%.

Question: For `N[C@H]1CC[C@H](Nc2ncc3cc(-c4ccccc4Cl)c(O)cc3n2)CC1` [Compound 158, 2-(trans-4-Aminocyclohexylamino)-6-(2-chlorophenyl)-7-hydroxyquinazoline], which inhibition at 1 µM is on record?
Answer: Its inhibition at 1 µM is at least 50%.

Question: How did the inhibition at 1 µM turn out when `COc1ccc(NC(C)=O)cc1-c1cc2cnc(NC(C)C)nc2cc1OC` [Compound 234, 6-(5-Acetylamino-2-methoxyphenyl)-2-isopropylamino-7-methoxyquinazoline] was run?
Answer: The inhibition at 1 µM was at least 50%.

Question: For `Cc1ccccc1-c1cc2cnc(N[C@@H](C)C(C)C)nc2cc1O` [Compound 173, (S)-2-(3-methyl-2-butylamino)-7-hydroxy-6-(2-methylphenyl)quinazoline], which inhibition at 1 µM is on record?
Answer: The inhibition at 1 µM was at least 50%.

Question: Which inhibition at 1 µM does the source give for `COc1cc2nc(NC(C)C)ncc2cc1-c1ccco1` [Compound 208, 6-(2-Furyl)-2-isopropylamino-7-methoxyquinazoline] here?
Answer: The inhibition at 1 µM was at least 50%.

Question: How did the inhibition at 1 µM turn out when `COc1cc2nc(N[C@H]3CC[C@H](O)CC3)ncc2cc1-c1ccccc1Cl` [Compound 10, 6-(2-Chlorophenyl)-2-(trans-4-hydroxycyclohexylamino)-7-methoxyquinazoline] was run?
Answer: The inhibition at 1 µM was at least 50%.

Question: `COc1cc2nc(NC(C)C)ncc2cc1-c1cccc(NC(=O)c2ccncc2)c1` [Compound 215, 2-Isopropylamino-7-methoxy-6-{3-[(4-pyridyl)carbonylamino]phenyl}quinazoline] was tested. Which inhibition at 1 µM did it give?
Answer: The inhibition at 1 µM was at least 50%.

Question: Which inhibition at 1 µM does the source give for `COc1cc2nc(NC3CCN(S(C)(=O)=O)CC3)ncc2cc1-c1cccc(O)c1` [Compound 240, 6-(3-Hydroxyphenyl)-7-methoxy-2-[1-(methylsulfonyl)piperidin-4-ylamino]quinazoline] here?
Answer: The inhibition at 1 µM was at least 50%.

Question: `CC(C)Nc1ncc2cc(C(=O)c3ccc(F)cc3)c(O)cc2n1` [Compound 131, 6-(4-Fluorobenzoyl)-7-hydroxy-2-(isopropylamino)quinazoline] was tested. Which inhibition at 1 µM did it give?
Answer: The inhibition at 1 µM was at least 50%.

Question: `CC(=O)Nc1cccc(-c2ccc3nc(NC4CCN(S(C)(=O)=O)CC4)ncc3c2)c1` [Compound 274, 6-[3-(Acetylamino)phenyl]-2-[1-(methylsulfonyl)piperidin-4-ylamino]quinazoline] was tested. Which inhibition at 1 µM did it give?
Answer: Its inhibition at 1 µM is at least 50%.

Question: `COc1cc2nc(N[C@H](C)c3ccccc3)ncc2cc1-c1ccccc1Cl` [Compound 8, (R)-6-(2-Chlorophenyl)-7-methoxy-2-[(1-phenylethyl)amino]quinazoline] was tested. Which inhibition at 1 µM did it give?
Answer: The inhibition at 1 µM was at least 50%.

Question: For `COc1cc2nc(NC(C)C)ncc2cc1-c1ccccc1CO` [Compound 182, 6-[2-(Hydroxymethyl)phenyl]-2-isopropylamino-7-methoxyquinazoline], which inhibition at 1 µM is on record?
Answer: The inhibition at 1 µM was at least 50%.

Question: With `CCOC(=O)N1CCC(Nc2ncc3cc(-c4ccccc4Cl)c(OC)cc3n2)CC1` [Compound 149, 6-(2-Chlorophenyl)-2-[1-(ethoxycarbonyl)piperidin-4-ylamino]-7-methoxyquinazoline] as the compound, how does the inhibition at 1 µM read?
Answer: The inhibition at 1 µM was at least 50%.

Question: With `Cc1cccc(C)c1Nc1ncc2cc(C(=O)c3ccccc3)c(O)cc2n1` [Compound 140, 6-Benzoyl-2-(2,6-dimethylanilino)-7-hydroxyquinazoline] as the compound, how does the inhibition at 1 µM read?
Answer: Its inhibition at 1 µM is at least 50%.

Question: Which inhibition at 1 µM does the source give for `Cc1cc2nc(NC(C)C)ncc2cc1-c1cccc(NC(=O)c2ccc[nH]2)c1` [Compound 278, 2-Isopropylamino-7-methyl-6-{3-[(1H-pyrrol-2-yl)carbonylamino]phenyl}quinazoline] here?
Answer: The inhibition at 1 µM was at least 50%.

Question: How did the inhibition at 1 µM turn out when `CCN(CC)C(=O)c1c(OC)c(-c2ccccc2Cl)cc2cnc(NC(C)C)nc12` [Compound 68, 6-(2-Chlorophenyl)-8-(N,N-diethylaminocarbonyl)-2-isopropylamino-7-methoxyquinazoline] was run?
Answer: The inhibition at 1 µM was at least 50%.

Question: For `COc1cc2nc(NC(C)C)ncc2cc1-c1cccc(C(C)=O)c1` [Compound 199, 6-(3-Acetylphenyl)-2-isopropylamino-7-methoxyquinazoline], which inhibition at 1 µM is on record?
Answer: Its inhibition at 1 µM is at least 50%.
